Drawing on ChEMBL document CHEMBL1201862, “PubChem BioAssay data set” (2004), this text covers AC50, EC50 and IC50 for 37 compounds.

One assay concerns the target Cytochrome P450 3A4 (Homo sapiens, UniProt P08684).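 Further: CYP3A4 tested as one member of a cytochrome P450 panel screen.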
The target in the next assay is Cytochrome P450 2D6 (Homo sapiens, UniProt P10635).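 Further: CYP2D6 member of a cytochrome P450 panel assay.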
The nature of assay [1]: alpha-synuclein stem-loop luciferase translation blockers – H4 neuroglioma cells, luminescence, confirmation (AID 1988). Format: functional, cell-based.
Assay [2] in a line: luciferase reporter signal suppression in cells – H4 neuroglioma cells, luminescence, dose response (AID 1990). Format: functional, cell-based.
The nature of assay [3]: Luminescence Cell-Based Dose Response HTS to Identify Inhibitors of 5'UTR Stem-Loop Driven Prion Protein mRNA Translation in H4 Neuroglioblastoma Cells. [Related pubchem assays: 1827 (Project Summary), 1813 (Primary HTS)]. In kind it is functional.
The next assay has as its target Cytochrome P450 2C19 (Homo sapiens, UniProt P33261). The assay can be described thus: Cytochrome panel assay with activity outcomes. Panel member name: p450-cyp2c19 Compounds with AC50 equal or less than 10 uM are considered active. Format: functional. Conditions: read-out: AC50.
Assay [4] is described as follows: non-specific 3'UTR reporter inhibition in Clone20-Shn3RL – cell-based, Renilla luciferase, cherry-picked, counter-screen for Shn3 inhibitor project, dose response (AID 624133). In kind it is functional. Background: A counterscreen serves to expose hits that act by an unwanted route or on another target.
Assay [5] can be described thus: reduction of Shn3 3'UTR-driven luciferase in osteoblasts – cell-based, Clone20 osteoblasts, firefly luciferase, cherry-picked, dose response (AID 624132).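 Further: firefly luciferase luminescence from reporter carrying the Shn3 3'UTR in osteoblasts.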 In kind it is functional.
For another assay, the target named is T1, Cytochrome P450 1A2 (Homo sapiens, UniProt P05177).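 Further: PubChem cytochrome P450 panel assay, CYP1A2 panel member.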
T1 sequence (P05177 whole entry): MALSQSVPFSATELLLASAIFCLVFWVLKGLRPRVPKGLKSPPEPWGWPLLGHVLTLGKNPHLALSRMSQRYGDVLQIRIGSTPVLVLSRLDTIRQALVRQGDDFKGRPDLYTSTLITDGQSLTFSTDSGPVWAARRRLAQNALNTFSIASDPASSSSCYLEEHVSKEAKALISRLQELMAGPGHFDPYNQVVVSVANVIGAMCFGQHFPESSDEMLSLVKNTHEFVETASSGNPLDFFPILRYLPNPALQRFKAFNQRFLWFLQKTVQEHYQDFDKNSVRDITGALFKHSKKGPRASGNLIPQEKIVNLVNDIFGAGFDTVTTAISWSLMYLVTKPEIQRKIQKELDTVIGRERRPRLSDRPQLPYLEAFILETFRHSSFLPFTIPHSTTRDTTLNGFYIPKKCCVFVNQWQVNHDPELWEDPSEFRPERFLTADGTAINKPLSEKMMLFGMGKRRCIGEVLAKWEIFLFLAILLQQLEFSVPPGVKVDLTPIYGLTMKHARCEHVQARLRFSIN

Assay [6] addresses FAD-linked sulfhydryl oxidase ALR (Homo sapiens, UniProt P55789). Description: ALR-catalysed DTT oxidation blockers – biochemical, H2O2 detection, luminescence, cherry-pick, dose response (AID 493248).
Assay [7] concerns the target T2, Rac GTPase-activating protein 1 (Homo sapiens, UniProt Q9H0H5).
T2 sequence (Q9H0H5 whole entry): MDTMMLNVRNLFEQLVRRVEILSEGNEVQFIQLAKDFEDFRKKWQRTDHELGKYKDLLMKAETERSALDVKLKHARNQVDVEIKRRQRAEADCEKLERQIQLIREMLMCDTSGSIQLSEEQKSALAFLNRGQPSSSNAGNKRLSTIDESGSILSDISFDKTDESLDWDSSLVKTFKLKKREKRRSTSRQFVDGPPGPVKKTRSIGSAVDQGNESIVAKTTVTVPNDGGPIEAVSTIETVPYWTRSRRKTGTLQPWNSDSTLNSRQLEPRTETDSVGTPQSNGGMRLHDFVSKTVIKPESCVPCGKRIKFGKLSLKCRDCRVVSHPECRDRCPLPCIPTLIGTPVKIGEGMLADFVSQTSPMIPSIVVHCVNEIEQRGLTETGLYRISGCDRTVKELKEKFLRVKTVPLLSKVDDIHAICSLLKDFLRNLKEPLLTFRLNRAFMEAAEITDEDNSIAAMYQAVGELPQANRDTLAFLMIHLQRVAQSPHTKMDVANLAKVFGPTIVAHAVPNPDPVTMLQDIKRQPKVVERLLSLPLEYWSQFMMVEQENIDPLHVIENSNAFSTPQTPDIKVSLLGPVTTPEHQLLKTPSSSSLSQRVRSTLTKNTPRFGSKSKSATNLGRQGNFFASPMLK
Description: blockers of MgcRacGAP-driven Rac1 GTP hydrolysis – biochemical, ADP Hunter fluorescence, primary and confirmatory, confirmation (AID 624330). Format: functional.

Assay [8] can be described thus: NIH3T3 cell viability loss – ATP luminescence, mouse fibroblasts, counter-screen, dose response (AID 2010).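 Further: cells exposed to compound for about 90 hours before reading.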 Format: functional, cell-based.
Assay [9] can be described thus: Trypanosoma cruzi growth suppression in host cells – NIH3T3 host cells, beta-gal luminescence, confirmation (AID 2044).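 Further: intracellular parasites grown in NIH/3T3 mouse fibroblasts as host cells; luminescent beta-galactosidase reporter signal from transgenic T. cruzi replicating inside host cells; inhibitors lower the luminescence signal.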 Format: functional, cell-based.
Assay [10] can be described thus: Luminescence Cell-Based Dose Retest to Confirm Inhibitors of Cancer Stem Cells. [Related pubchem assays (depositor defined):AID2717, AID2721]. Conditions: Homo sapiens. In kind it is functional.

Molecules are shown by their SMILES. The source made the active and inactive calls. Where only a bound is given, the exact number is not on record here.

Sequence of Cytochrome P450 3A4 (P08684 whole entry): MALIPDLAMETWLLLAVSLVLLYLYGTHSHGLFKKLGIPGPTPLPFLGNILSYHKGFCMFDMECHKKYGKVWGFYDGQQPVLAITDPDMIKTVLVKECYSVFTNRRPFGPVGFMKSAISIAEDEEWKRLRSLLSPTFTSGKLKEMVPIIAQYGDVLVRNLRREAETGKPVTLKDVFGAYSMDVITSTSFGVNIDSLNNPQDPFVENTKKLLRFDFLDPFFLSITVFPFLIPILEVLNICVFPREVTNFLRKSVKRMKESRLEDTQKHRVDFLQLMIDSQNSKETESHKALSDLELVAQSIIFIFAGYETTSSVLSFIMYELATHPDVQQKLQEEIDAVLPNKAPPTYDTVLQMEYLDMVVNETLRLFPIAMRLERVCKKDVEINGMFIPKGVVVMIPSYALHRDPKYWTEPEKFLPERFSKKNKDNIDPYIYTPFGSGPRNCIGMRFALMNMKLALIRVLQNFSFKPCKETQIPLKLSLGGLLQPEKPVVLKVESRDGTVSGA
Sequence of Cytochrome P450 2C19 (P33261 whole entry): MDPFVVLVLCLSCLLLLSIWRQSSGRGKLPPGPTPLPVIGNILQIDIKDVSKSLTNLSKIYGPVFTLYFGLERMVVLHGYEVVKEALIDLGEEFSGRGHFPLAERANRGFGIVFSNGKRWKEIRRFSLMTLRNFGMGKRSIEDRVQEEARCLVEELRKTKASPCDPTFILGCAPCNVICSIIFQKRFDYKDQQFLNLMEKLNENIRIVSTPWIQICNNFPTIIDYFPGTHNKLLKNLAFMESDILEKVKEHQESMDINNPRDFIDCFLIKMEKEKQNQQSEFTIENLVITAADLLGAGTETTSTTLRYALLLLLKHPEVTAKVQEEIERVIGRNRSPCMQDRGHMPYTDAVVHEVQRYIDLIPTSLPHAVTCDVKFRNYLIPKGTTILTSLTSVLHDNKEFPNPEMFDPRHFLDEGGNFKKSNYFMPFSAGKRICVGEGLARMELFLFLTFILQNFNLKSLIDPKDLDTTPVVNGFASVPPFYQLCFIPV
Sequence of Cytochrome P450 2D6 (P10635 whole entry): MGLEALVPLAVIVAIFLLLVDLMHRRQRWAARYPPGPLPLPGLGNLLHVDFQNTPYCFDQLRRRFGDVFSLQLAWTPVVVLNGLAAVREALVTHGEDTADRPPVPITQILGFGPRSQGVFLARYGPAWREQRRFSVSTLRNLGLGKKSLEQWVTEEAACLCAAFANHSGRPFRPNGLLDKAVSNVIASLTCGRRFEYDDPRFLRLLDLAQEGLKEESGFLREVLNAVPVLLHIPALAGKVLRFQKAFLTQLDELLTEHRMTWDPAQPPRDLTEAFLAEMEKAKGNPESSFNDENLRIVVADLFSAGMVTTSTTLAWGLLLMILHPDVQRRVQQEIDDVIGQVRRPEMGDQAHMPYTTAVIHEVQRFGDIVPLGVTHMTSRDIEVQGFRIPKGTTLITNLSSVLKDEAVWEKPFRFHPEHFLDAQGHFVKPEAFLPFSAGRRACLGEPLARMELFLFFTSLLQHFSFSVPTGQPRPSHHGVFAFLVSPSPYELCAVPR
Sequence of FAD-linked sulfhydryl oxidase ALR (P55789 whole entry): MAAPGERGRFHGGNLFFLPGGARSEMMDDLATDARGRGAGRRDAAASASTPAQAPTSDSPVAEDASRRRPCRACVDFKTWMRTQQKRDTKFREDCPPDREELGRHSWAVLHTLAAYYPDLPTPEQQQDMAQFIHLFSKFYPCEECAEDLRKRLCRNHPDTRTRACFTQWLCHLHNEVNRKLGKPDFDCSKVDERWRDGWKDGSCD

As a reminder, the AC50 is the concentration giving half of the maximal activity seen. With `O=C(C1CCC(=O)N1Cc1ccccc1Cl)N1CCN(c2cccc(Cl)c2)CC1` (centres undefined), the AC50 at Cytochrome P450 3A4 is 0.0355 µM (inconclusive); on Cytochrome P450 2D6, 14.1 µM (inconclusive).
For orientation: EC50 means the concentration giving half of the maximal effect. Turning to `CCCCCn1c(SCCCC)nc2c1c(=O)[nH]c(=O)n2C`, the figures for the concentration for a half-maximal effect (EC50) in assay [1], in assay [2] and in assay [3] were > 60 µM (not active), 17.1 µM (active) and > 120 µM (not active), respectively.
On the same counts, the results for `CCOc1ccccc1NC(=O)CCn1cccc1` are > 120 µM (not active), > 120 µM (not active) and > 120 µM (not active).
Regarding `Cn1cccc1C(=O)N1CCC2(CCCN(C(c3ccccc3)c3ccccc3)C2)CC1`, the AC50 was 6.31 µM (inconclusive) at Cytochrome P450 3A4, 39.8 µM (inconclusive) at Cytochrome P450 2C19 and 10 µM (inconclusive) on Cytochrome P450 2D6.
Turning to `CN(C)C(=O)c1cn(N(C)c2ncc(C(F)(F)F)cc2Cl)c(=O)c2ccccc12`, the AC50 at Cytochrome P450 3A4 is 10 µM (inconclusive); at Cytochrome P450 2D6 it was 25.1 µM (inconclusive).
`O=C(Nc1cc(F)ccc1F)N1CCN(c2ccnc3cc(Cl)ccc23)CC1`: the concentration at half-maximal activity (AC50) was 10.2 µM (active) in [4] and 22.8 µM (active) in assay [5].
For `COC(=O)c1cccc(NC(=O)NC(=O)c2ccccc2Cl)c1`, the figures for the EC50 in assay [1], in assay [2] and in [3] were 7.75 µM (active), 2 µM (active) and 2.84 µM (active), respectively.
Regarding `COC(=O)[C@@]1(Cc2ccc(OC)cc2)[C@H]2c3cc(C(=O)N(C)C)n(Cc4ccc(C)o4)c3C[C@H]2CN1C(=O)c1ccccc1`, at Cytochrome P450 2D6, the concentration at half-maximal activity (AC50) was 39.8 µM (inconclusive).
On to `COc1ccc(Oc2nccc(-c3ccc(F)cc3)c2C#N)cc1`, for which the concentration at half-maximal activity (AC50) is 12.6 µM (inconclusive) on Cytochrome P450 3A4, 5.01 µM (inconclusive) on Cytochrome P450 1A2 and 0.00562 µM (inconclusive) at Cytochrome P450 2D6.
Turning to `CC(C)n1cc(CN2CCCC(C(=O)Nc3cccc(-c4cc5ccccc5[nH]4)c3)C2)cn1` (centres undefined), the half-maximal effective concentration (EC50) is 30.6 µM (active) in [1], 14.5 µM (active) in [2] and > 120 µM (not active) in assay [3].
Turning to `O=C(NCCN1CCOCC1)c1csc2c1CCCCC2`, the results for the AC50 on Cytochrome P450 1A2 and at Cytochrome P450 2D6 were 20 µM (inconclusive) and 17.8 µM (inconclusive), respectively.
A word on the IC50: it is the concentration that gives 50% inhibition. On to `CCN(CC)c1ccc(NC(=O)C2=CC=CN3CCS(=O)(=O)N=C23)cc1`, for which the AC50 in [6] was 0.295 µM (active). Moreover, in [7], the IC50 was 67 µM (active).
For the compound `COc1ccc2nc(S)[nH]c2c1`, in assay [6], the AC50 is 0.581 µM (active).
Consider `Cc1ccccc1NS(=O)(=O)c1ccc2ncc(C(=O)NCCCN3CCOCC3)c(O)c2c1`, for which the concentration at half-maximal activity (AC50) at Cytochrome P450 1A2 is 39.8 µM (inconclusive); on Cytochrome P450 2C19, 25.1 µM (inconclusive); at Cytochrome P450 2D6, 20 µM (inconclusive).
Take `CCN(Cc1ccncc1)C(=O)c1cc(Br)cc(Br)c1O`: the AC50 in assay [6] was 1.25 µM (active).
Take `CCS(=O)(=O)c1ccc2oc(Nc3cc(C)cc(C)c3)nc2c1`: the half-maximal activity concentration (AC50) was 28.2 µM (inconclusive) at Cytochrome P450 3A4 and 25.1 µM (inconclusive) at Cytochrome P450 2D6.
For `C[C@]1(CC(=O)O)O[C@H]2CCCCC[C@H]2O1.NCc1ccccc1`, in that order: 0.251 µM (inconclusive) and 3.16 µM (inconclusive).
For the compound `Cc1[nH]c2ccc(C(=O)N3CCCCC3)cc2c1C`, the concentration at half-maximal activity (AC50) in assay [6] was 2.77 µM (active).
Same read-out and setting: in the case of `CN1CCN(/N=C/c2ccc(N(C)c3ccccc3)cc2)CC1` it was 1.9 µM (active); in that of `CC(NC(=O)C(=O)N1CCCCC1)C(c1cccs1)N1CCN(c2ccc(F)cc2)CC1` (centres undefined), 1.44 µM (active); in that of `CC(=O)N1CCC(=NNC(=O)c2cccs2)CC1`, 13.5 µM (active).
In the case of `COc1ccc(OC)c(C(=O)N2CCC(n3nccc3NC(=O)CC(C)C)CC2)c1`, the half-maximal effective concentration (EC50) in assay [1], in assay [2] and in [3] was > 120 µM (not active) each time.
For the compound `COc1cc(C(=O)OCC(=O)NC2CCCCCC2)ccc1OCC(C)C`, the AC50 in assay [4] was 35.9 µM (active).
On to `CN1Cc2cc(C(=O)c3ccccc3O)cnc2NC1=O`, for which the half-maximal activity concentration (AC50) in [6] was 6.59 µM (active).
On the same count and under the same terms, in the case of `Cc1c(Br)c(O)c(Br)c(O)c1/C=N/n1c(S)nnc1-c1ccccc1` it was 4.15 µM (active).
With `COc1cc2c(cc1OC)C(c1ccc(Br)cc1)NCC2` (centres undefined), the 50% effective concentration (EC50) in [8] is > 60 µM (not active); in assay [1], > 120 µM (not active); in assay [2], > 120 µM (not active); in assay [3] it was > 120 µM (not active); in assay [9], > 60 µM (not active).
In the case of `COc1ccc(NC(=O)CNC(=O)Cn2c(C)cc3ccccc3c2=O)c(OC)c1`, the concentration giving a half-maximal response (EC50) in assay [1], in [2] and in assay [3] was > 120 µM (not active) in each case.
As to `COC(=O)Cc1csc(N/C=C2/C(=O)N(c3cccc(C(F)(F)F)c3)C(=O)c3ccccc32)n1`, the figures for the EC50 in assay [1], in assay [2] and in assay [3] were 11.3 µM (active), > 120 µM (not active) and > 120 µM (not active), respectively.
Turning to `Cc1[nH]n(C(N)=S)c(=O)c1/N=N/c1ccc(Cl)cc1Cl`, the AC50 in assay [6] is 0.674 µM (active).
For the compound `c1cc(CN2CCCC3(CCNCC3)C2)ccn1`, the AC50 at Cytochrome P450 2C19 and on Cytochrome P450 2D6 was 25.1 µM (inconclusive) in each case.
Take `Cc1cccc(C(=O)Nc2nnc(S(=O)(=O)N(C)Cc3ccco3)s2)c1`: the half-maximal activity concentration (AC50) in assay [6] was 9.45 µM (active).
In the case of `COC(=O)c1c(NC(=O)COc2ccc(Cl)cc2Cl)sc2c1CC(C)(C)NC2(C)C`, the AC50 in assay [10] was 5.58 µM (active). Besides, the EC50 is 9.53 µM (active) in assay [1], 8.93 µM (active) in assay [2] and > 120 µM (not active) in [3].
With `Sc1nccc(-c2cccs2)n1`, the AC50 in assay [6] was 0.664 µM (active).
As for `Cc1onc(-c2ccccc2)c1C(=O)NCCc1c[nH]c2ccccc12`, the concentration at half-maximal activity (AC50) at Cytochrome P450 2D6 was 12.6 µM (inconclusive).
Regarding `CC(=O)Nc1ccc(S(=O)(=O)N(Cc2cc3ccc(C)cc3nc2O)CC2CCCO2)cc1` (centres undefined), the EC50 in [1] is 11.8 µM (active); in assay [2], 16.8 µM (active); in assay [3], 60.6 µM (active).
Regarding `CNC(C)(C)Cc1ccccc1` [MEPHENTERMINE], the concentration at half-maximal activity (AC50) at Cytochrome P450 2D6 is 10 µM (inconclusive).
Consider `Nc1ccc2nc(NC(=O)C3CCCCC3)sc2c1`, for which, in assay [6], the AC50 is 0.957 µM (active).
